Several values for one entry are separate records, joined by “and”; a condition that tells them apart may be missing. Equal entries are not always repeated. Structures can show the parent of a compound that is named as a salt.
Assays:
fibromyalgia patients = conditions: cited from earlier work
[1] = tested on: patients who met the 1990 ACR criteria for fibromyalgia syndrome; assay: Example 1: multi-center double-blind, randomized, placebo-controlled study of milnacipran for the treatment of fibromyalgia (888 patients); type: in vivo, human; parameters: Mean Change from Baseline in PFI SF-36 domain score / Mean Change from Baseline in PAIN SF-36 domain score / Mean Change from Baseline in GHP SF-36 domain score / Mean Change from Baseline in ROLP SF-36 domain score: scale not given here; conditions: for responders for the treatment of the pain of fibromyalgia (pain composite), % = m/n: observed cases (OC), hydrochloride; for odds ratio of response / number of responders m (pain of fibromyalgia): OC; for Mean Change from Baseline in GHP SF-36 domain score / Mean Change from Baseline in PAIN SF-36 domain score / Mean Change from Baseline in PCS Score / Mean Change from Baseline in PFI SF-36 domain score / Mean Change from Baseline in ROLP SF-36 domain score: Observed Cohort
Experimental: The primary outcome was a composite responder analysis assessing response rate at weeks 14 and 15, and the secondary analysis assessed response rate at weeks 26 and 27.
This was a multi-center, randomized, double-blinded, placebo-controlled three-arm study, which enrolled 888 patients who met the 1990 ACR criteria for fibromyalgia syndrome as well as the more detailed admission criteria outlined in the protocol.
Patients were randomized to receive either placebo, 100 mg/day milnacipran, or 200 mg/day milnacipran in a ratio of a 1:1:2. All randomized medications (placebo and milnacipran) were administered in a split-dose (BID) fashion. The doses were administered in a dose escalation regimen as outlined below:
All patients were scheduled to receive a total of 24 weeks of milnacipran or placebo after the 3 weeks of dose escalation steps, for a total of 27 weeks of milnacipran or placebo exposure.
The primary endpoint of this study was a composite responder analysis implementing analysis of three domains of interest, evaluated at […]. The domains measured were:
1) pain (measured by an electronic diary as a daily recall pain score, calculated to weekly average scores)
2) patient global (measured by the PGIC, 1-7 scale)
3) physical function (measured by the SF-36 PCS).
For the primary analysis, the pain domain score was determined by a calculation that compared the average of treatment weeks 14 and 15 to the two baseline weeks, and treatment weeks 26 and 27 vs. baseline for the secondary analysis. The last observation was carried forward if neither the week 14 nor week 15 (or week 26/27) patient self-reported pain score is available to compare to the baseline value.
A responder was defined as a subject who experienced a greater than 30% reduction in pain from baseline and improvement on the PGIC.
At three months, the percentage of responders was: 35.44% (56/158) in the placebo group; 53.33% (72/135) (p=0.001) in the milnacipran 100 mg/day group; and 55.00% (143/260) (p<0.001) in the milnacipran 200 mg/day group. At six months, the percentage of responders was: 32.86% (46/140) in the placebo group; 49.59% (60/121) (p=0.002) in the milnacipran 100 mg/day group; and 51.74% (119/230) (p<0.001) in the milnacipran 200 mg/day group. See Table 1 for a summary of the results in the Intent-to-Treat Population and Table 2 for a summary of the Last Observation Carried Forward (LOCF), Baseline Observation Carried Forward (BOCF) and study completer (OC) populations. LOCF is an analysis in which observations are carried forward to the last time point for patients who dropped out. The LOCF analysis treats the carried-forward data as observed data at the last time point. BOCF is an analysis that requires the patient remain active in the trial to be evaluated for response. If a patient withdraws from the trial for any reason they are classed as a non-responder irregardless of their pain and global scores at the time of withdrawal.
The following domains were used to evaluate the PCS score: physical function (PFI), role physical (ROLP), bodily pain (PAIN), general health profile (GHP), […] (VIT), social role (SOC), role emotional (ROLE) and mental health index (MHI). The PFI, ROLP, PAIN and GHP domains are positively weighted in the PCS calculation, and the VIT, SOC, ROLE and MHI domains are negatively weighted in the PCS calculation (Normative Value=50, SD=10).

[2] = both milnacipran treatment groups (QD and BID), escalation to maximum 200 mg/day

CCN(CC)C(=O)C1(c2ccccc2)CC1CN (racemic) [milnacipran, Z-2-aminomethyl-1-phenyl-N,N-diethylcyclopropanecarboxamide hydrochloride]
effect on the symptom of pain in FMS (in words) (fibromyalgia patients; 100 mg BID): effective acute (short-term) therapy
PGIC: completers who reported an improvement in their overall status (fibromyalgia patients; [2]): over 70%
PGIC: completers who reported worsening (fibromyalgia patients; [2]): 10%
physical function in patients with fibromyalgia compared to placebo (in words) ([1]; 100 mg or 200 mg): surprisingly and effectively improves physical function
responders for the treatment of the pain of fibromyalgia (pain composite), % = m/n ([1]; 100 mg/day, treatment weeks 14-15 (3 months)): 53.33% and 53.3%
responders for the treatment of the pain of fibromyalgia (pain composite), % = m/n ([1]; 100 mg/day, treatment weeks 14-15 (3 months), listed as Milnacipran): 53.33%
responders for the treatment of the pain of fibromyalgia (pain composite), % = m/n ([1]; 100 mg/day, treatment weeks 26-27 (6 months)): 49.59% and 49.6%
responders for the treatment of the pain of fibromyalgia (pain composite), % = m/n ([1]; 100 mg/day, treatment weeks 26-27 (6 months), listed as Milnacipran): 49.59%
odds ratio of response ([1]; 100 mg/day, weeks 14-15): 2.10
number of responders m (pain of fibromyalgia) ([1]; 100 mg/day, weeks 14-15, n=135): 72
odds ratio of response ([1]; 100 mg/day, weeks 26-27): 1.96
number of responders m (pain of fibromyalgia) ([1]; 100 mg/day, weeks 26-27, n=121): 60
Pain Composite responder rate, Sensitivity Analysis II ([1]; 100 mg, 3 month): 32.%
Pain Composite responder rate, Sensitivity Analysis III ([1]; 100 mg, 3 month): 32.1%
Pain Composite responder rate, Sensitivity Analysis I (BOCF) ([1]; 100 mg, 3 month): 32.1%
Individual component responder rate: PGIC (LOCF) ([1]; 100 mg, 3 month): 54.0%
Individual component responder rate: Pain (LOCF) ([1]; 100 mg, 3 month): 35.7%
Pain Composite responder rate, Primary Analysis (LOCF) ([1]; 100 mg, 3 month): 33.5%
Pain Composite responder rate, Sensitivity Analysis II ([1]; 100 mg, 6 month): 27.2%
Pain Composite responder rate, Sensitivity Analysis III ([1]; 100 mg, 6 month): 29.5%
Pain Composite responder rate, Sensitivity Analysis I (BOCF) ([1]; 100 mg, 6 month): 26.8%
Individual component responder rate: PGIC (LOCF) ([1]; 100 mg, 6 month): 49.6%
Individual component responder rate: Pain (LOCF) ([1]; 100 mg, 6 month): 35.7%
Pain Composite responder rate, Primary Analysis (LOCF) ([1]; 100 mg, 6 month): 30.8%
Mean Change from Baseline in GHP SF-36 domain score ([1]; 100 mg, Tx 3): 5.9
Mean Change from Baseline in PAIN SF-36 domain score ([1]; 100 mg, Tx 3): 11.8
Mean Change from Baseline in PCS Score ([1]; 100 mg, Tx 3): 3.6
Mean Change from Baseline in PFI SF-36 domain score ([1]; 100 mg, Tx 3): 6.4
Mean Change from Baseline in ROLP SF-36 domain score ([1]; 100 mg, Tx 3): 12.3
Mean Change from Baseline in GHP SF-36 domain score ([1]; 100 mg, Tx 7): 6.3
Mean Change from Baseline in PAIN SF-36 domain score ([1]; 100 mg, Tx 7): 15.0
Mean Change from Baseline in PCS Score ([1]; 100 mg, Tx 7): 4.6
Mean Change from Baseline in PFI SF-36 domain score ([1]; 100 mg, Tx 7): 7.6
Mean Change from Baseline in ROLP SF-36 domain score ([1]; 100 mg, Tx 7): 16.4
Mean Change from Baseline in GHP SF-36 domain score ([1]; 100 mg, Tx 11): 8.1
Mean Change from Baseline in PAIN SF-36 domain score ([1]; 100 mg, Tx 11): 19.4
Mean Change from Baseline in PCS Score ([1]; 100 mg, Tx 11): 5.9
Mean Change from Baseline in PFI SF-36 domain score ([1]; 100 mg, Tx 11): 10.6
Mean Change from Baseline in ROLP SF-36 domain score ([1]; 100 mg, Tx 11): 18.6
Mean Change from Baseline in GHP SF-36 domain score ([1]; 100 mg, Tx 15): 7.8
Mean Change from Baseline in PAIN SF-36 domain score ([1]; 100 mg, Tx 15): 18.1
Mean Change from Baseline in PCS Score ([1]; 100 mg, Tx 15): 6.2
Mean Change from Baseline in PFI SF-36 domain score ([1]; 100 mg, Tx 15): 11.4
Mean Change from Baseline in ROLP SF-36 domain score ([1]; 100 mg, Tx 15): 19.3
responders for the treatment of the pain of fibromyalgia (pain composite), % = m/n ([1]; 200 mg/day, treatment weeks 14-15 (3 months)): 55.0%
responders for the treatment of the pain of fibromyalgia (pain composite), % = m/n ([1]; 200 mg/day, treatment weeks 14-15 (3 months), listed as Milnacipran): 55.00%
responders for the treatment of the pain of fibromyalgia (pain composite), % = m/n ([1]; 200 mg/day, treatment weeks 26-27 (6 months)): 51.74% and 51.7%
responders for the treatment of the pain of fibromyalgia (pain composite), % = m/n ([1]; 200 mg/day, treatment weeks 26-27 (6 months), listed as Milnacipran): 51.74%
odds ratio of response ([1]; 200 mg/day, weeks 14-15): 2.20
number of responders m (pain of fibromyalgia) ([1]; 200 mg/day, weeks 14-15, n=260): 143
odds ratio of response ([1]; 200 mg/day, weeks 26-27): 2.20
number of responders m (pain of fibromyalgia) ([1]; 200 mg/day, weeks 26-27, n=230): 119
Pain Composite responder rate, Sensitivity Analysis II ([1]; 200 mg, 3 month): 32.7%
Pain Composite responder rate, Sensitivity Analysis III ([1]; 200 mg, 3 month): 32.4%
Pain Composite responder rate, Sensitivity Analysis I (BOCF) ([1]; 200 mg, 3 month): 32.4%
Individual component responder rate: PGIC (LOCF) ([1]; 200 mg, 3 month): 50.6%
Individual component responder rate: Pain (LOCF) ([1]; 200 mg, 3 month): 38.3%
Pain Composite responder rate, Primary Analysis (LOCF) ([1]; 200 mg, 3 month): 34.9%
Pain Composite responder rate, Sensitivity Analysis II ([1]; 200 mg, 6 month): 28.6%
Pain Composite responder rate, Sensitivity Analysis III ([1]; 200 mg, 6 month): 29.9%
Pain Composite responder rate, Sensitivity Analysis I (BOCF) ([1]; 200 mg, 6 month): 27.0%
Individual component responder rate: PGIC (LOCF) ([1]; 200 mg, 6 month): 49.9%
Individual component responder rate: Pain (LOCF) ([1]; 200 mg, 6 month): 35.4%
Pain Composite responder rate, Primary Analysis (LOCF) ([1]; 200 mg, 6 month): 32.2%
Mean Change from Baseline in GHP SF-36 domain score ([1]; 200 mg, Tx 3): 6.0
Mean Change from Baseline in PAIN SF-36 domain score ([1]; 200 mg, Tx 3): 12.5
Mean Change from Baseline in PCS Score ([1]; 200 mg, Tx 3): 3.6
Mean Change from Baseline in PFI SF-36 domain score ([1]; 200 mg, Tx 3): 8.2
Mean Change from Baseline in ROLP SF-36 domain score ([1]; 200 mg, Tx 3): 13.0
Mean Change from Baseline in GHP SF-36 domain score ([1]; 200 mg, Tx 7): 8.5
Mean Change from Baseline in PAIN SF-36 domain score ([1]; 200 mg, Tx 7): 18.6
Mean Change from Baseline in PCS Score ([1]; 200 mg, Tx 7): 5.9
Mean Change from Baseline in PFI SF-36 domain score ([1]; 200 mg, Tx 7): 11.0
Mean Change from Baseline in ROLP SF-36 domain score ([1]; 200 mg, Tx 7): 19.0
Mean Change from Baseline in GHP SF-36 domain score ([1]; 200 mg, Tx 11): 7.7
Mean Change from Baseline in PAIN SF-36 domain score ([1]; 200 mg, Tx 11): 16.8
Mean Change from Baseline in PCS Score ([1]; 200 mg, Tx 11): 5.6
Mean Change from Baseline in PFI SF-36 domain score ([1]; 200 mg, Tx 11): 10.7
Mean Change from Baseline in ROLP SF-36 domain score ([1]; 200 mg, Tx 11): 18.4
Mean Change from Baseline in GHP SF-36 domain score ([1]; 200 mg, Tx 15): 8.2
Mean Change from Baseline in PAIN SF-36 domain score ([1]; 200 mg, Tx 15): 19.3
Mean Change from Baseline in PCS Score ([1]; 200 mg, Tx 15): 6.1
Mean Change from Baseline in PFI SF-36 domain score ([1]; 200 mg, Tx 15): 11.9
Mean Change from Baseline in ROLP SF-36 domain score ([1]; 200 mg, Tx 15): 19.9
